Assay results reported in patent publication US4409388A, “1,2,4-Triazole derivatives, and their use as antifertility agents” (Gruppo Lepetit S.p.A., priority 1978, dated 1983).

Experiments:
hamsters = experiment: antifertility activity, oral route, pregnant hamsters; format: in vivo, Syrian golden hamsters; conditions: for reduction of live fetuses: oral dosage of 20 mg/Kg, hamsters
Procedure: (§1) Representative experiments for assessing antifertility activity were carried out with female Syrian golden hamsters weighing 100 to 130 g. The animals were mated and the presence of sperm in the vagina was taken as evidence of mating. The day sperm was detected and considered day one of pregnancy, since in our laboratories and those of other investigators 90 to 100% of animals that mate as evidenced by vaginal sperm are pregnant.
(§2) Pregnancy was later confirmed at the time of autopsy by presence of fetuses or implantation sites in the uterus.
(§3) Even if an animal aborts the fetus, implantation scars still remain as evidence that the animal has been pregnant.
The animals were autopsied on day 14 of pregnancy and the uteri were examined for evidence of pregnancy (implantation sites, fetal resorptions or live fetuses), hemorrage, and evidence of abnormalities of the uterus, placenta or fetuses. A compound was considered to be active if there was a reduction of live fetuses in at least 60% of the treated animals and the presence of implantation sites proves the animal to have been pregnant. […] The compounds were then studied for dose-activity relationships and the corresponding ED50 values i.e., 100% activity (absence of live fetuses) in 50% of the animals, were also determined. The following table reports the ED50 values of some representative compounds of the invention:
Favorable results were also obtained by administering the compounds of the invention by oral route. The experiments for assessing this property were carried out on hamsters following the same procedure as above, with the obvious exception that the compounds were administered orally instead of subcutaneously.

[1] = test system: female Syrian golden hamsters; experiment: post-coital/post-implantation antifertility activity, subcutaneous, pregnant hamsters; format: in vivo; conditions: days 4-8 of pregnancy; for activity according to the criteria (reduction of live fetuses in at least 60% of the treated animals): 10 mg/kg s.c. daily for 5 days, hamsters; for ED50: Mesocricetus auratus, sc, 120 h, s.c. hamsters, daily for 5 days, sesame oil, read-out: ED50 (100% activity, absence of live fetuses, in 50% of the animals)
Procedure: as §1, §2, §3
The animals were autopsied on day 14 of pregnancy and the uteri were examined for evidence of pregnancy (implantation sites, fetal resorptions or live fetuses), hemorrage, and evidence of abnormalities of the uterus, placenta or fetuses.

SMILES	reduction of live fetuses (hamsters)	activity according to the criteria (reduction of live fetuses in at least 60% of the treated animals) [1]	ED50 [1] [mg/kg]	ED50 (hamsters; Mesocricetus auratus, po, 120 h, p.o. hamsters, daily for 5 days, days 4-8 of pregnancy) [mg/kg]
COc1cccc(-c2nc(-c3ccccc3C=O)n[nH]2)c1 [Example 3, 2-[5-(3-methoxyphenyl)-1H-1,2,4-triazol-3-yl]benzaldehyde]	about 60%	active	0.1	
COc1cccc(-c2n[nH]c(-c3ccccc3CO)n2)c1 [Example 1, 5-(2-hydroxymethylphenyl)-3-(3-methoxyphenyl)-1H-1,2,4-triazole]	about 60%	active	0.08	10
